For 28 molecules, IC50 results are on record in patent US20120165339A1, “CYCLOPROPANE DERIVATIVES” (EISAI R&D MANAGEMENT CO., LTD., priority 2010, published 2012).

Assay [1] deals with T1, OX1 (Homo sapiens, UniProt O43613).
T1 sequence (O43613 1-425): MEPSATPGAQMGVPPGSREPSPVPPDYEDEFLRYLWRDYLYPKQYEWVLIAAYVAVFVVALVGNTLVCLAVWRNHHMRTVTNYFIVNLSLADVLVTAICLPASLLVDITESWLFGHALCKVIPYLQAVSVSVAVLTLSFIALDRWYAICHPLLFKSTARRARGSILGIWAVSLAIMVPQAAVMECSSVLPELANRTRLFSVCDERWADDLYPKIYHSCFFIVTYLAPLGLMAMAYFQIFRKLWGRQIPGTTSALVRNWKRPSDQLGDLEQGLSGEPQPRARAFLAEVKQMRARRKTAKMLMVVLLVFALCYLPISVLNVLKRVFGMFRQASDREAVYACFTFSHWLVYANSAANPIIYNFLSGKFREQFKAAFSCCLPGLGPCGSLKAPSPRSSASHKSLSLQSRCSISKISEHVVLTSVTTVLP
The assay is described as follows: Orexin-receptor binding ability, [125I]-OX-A, CHO cell membranes expressing OX1. Also noted: expressed in transfected cells; host or cells: CHO cells (membrane preparation). Conditions: membranes of recombinant CHO cells, 0.2 nM [125I]-OX-A tracer; read-out: OX1 (IC50). The protocol:
(§1) The assay was carried out using a 96-well Wheat Germ Agglutinin Flash Plate (PerkinElmer). The volume in a single assay well was 100 ul, and the composition of the reaction solution was as follows:
(§2) 25 mM HEPES (pH 7.5), 1 mM CaCl2, 4.5 mM MgCl2, 0.5% BSA (bovine serum albumin), 0.1% sodium azide, 0.05% Tween-20, and 0.2% DMSO.
Cell membranes were prepared from recombinant CHO cells that expressed OX2 or OX1. The cell membranes were used in an amount of 5 μg protein/assay. […] Finally, the radioactivity of each well was measured using a scintillation counter (TopCount, PerkinElmer). The obtained results are shown in terms of IC50 values (nM) in the following table.

The target of assay [2] is T2, OX2 (Homo sapiens, UniProt O43614).
T2 sequence (O43614 1-444): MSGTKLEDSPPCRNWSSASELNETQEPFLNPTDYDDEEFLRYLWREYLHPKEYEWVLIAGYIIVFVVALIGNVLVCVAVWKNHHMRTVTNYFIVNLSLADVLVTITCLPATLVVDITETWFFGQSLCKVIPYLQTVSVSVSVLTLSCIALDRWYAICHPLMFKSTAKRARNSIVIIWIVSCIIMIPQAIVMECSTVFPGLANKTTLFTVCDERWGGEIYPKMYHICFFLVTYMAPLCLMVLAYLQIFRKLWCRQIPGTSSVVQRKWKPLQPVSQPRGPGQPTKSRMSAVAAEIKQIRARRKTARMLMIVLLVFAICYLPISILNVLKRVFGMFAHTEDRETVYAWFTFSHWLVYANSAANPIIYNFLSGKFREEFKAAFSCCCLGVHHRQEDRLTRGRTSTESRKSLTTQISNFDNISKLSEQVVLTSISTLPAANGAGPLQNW
Put plainly: Orexin-receptor binding ability, [125I]-OX-A, CHO cell membranes expressing OX2. Also noted: expressed in transfected cells; host or cells: CHO cells (membrane preparation). Conditions: membranes of recombinant CHO cells, 0.2 nM [125I]-OX-A tracer; read-out: OX2 (IC50). The protocol: as §1, §2
Cell membranes were prepared from recombinant CHO cells that expressed OX2 or OX1. The cell membranes were used in an amount of 5 μg protein/assay. Test compound in various concentrations, and 0.2 nM [^125I]-OX-A as tracer were added to the cell membranes, and then allowed to react at room temperature for 30 minutes. After completion of the reaction, the reaction solution as a whole was discarded, and the wells were then washed once with 200 ul of wash buffer (25 mM HEPES (pH 7.5), 1 mM CaCl2, 5 mM MgCl2, 0.5% BSA, 0.1% sodium azide, 0.05% Tween-20, and 525 mM sodium chloride). Finally, the radioactivity of each well was measured using a scintillation counter (TopCount, PerkinElmer). The obtained results are shown in terms of IC50 values (nM) in the following table.

As a reminder, the IC50 is the concentration needed to halve the response being measured. On to `CCn1cc(OC[C@@]2(c3cccc(F)c3)C[C@H]2C(=O)Nc2ccc(C#N)cn2)c(C)n1` [Example 90], for which the IC50 was 13 nM in assay [1] and 8 nM in assay [2].
The matching figures for `Cc1nc(C(F)F)nn1CC[C@@]1(c2ccccc2)C[C@H]1C(=O)Nc1ccc(F)cc1` [Example 111]: 655 nM and 41 nM.
`Cc1cc(NC(=O)[C@@H]2C[C@@]2(COc2cc(=O)n(C)nc2C)c2ccccc2)ncc1F` [Example 94]: the figures for the IC50 in assay [1] and in assay [2] were 771 nM and 39 nM, respectively.
As to `Cc1nn(C)c(=O)cc1OC[C@@]1(c2ccccc2)C[C@H]1C(=O)Nc1ccc(Cl)cn1` [Example 95], the IC50 in assay [1] came out at 1600 nM; in assay [2], 59 nM.
With `Cc1nc(C(F)F)nn1CC[C@@]1(c2ccccc2)C[C@H]1C(=O)Nc1ccc(C#N)cn1` [Example 112], in assay [2], the IC50 was found to be 33 nM.
In the case of `Cc1nn(C)c(=O)cc1OC[C@@]1(c2ccccc2)C[C@H]1C(=O)Nc1ccc(F)cc1` [Example 93, (1R,2S)-2-[(1,3-dimethyl-6-oxo-1,6-dihydropyridazin-4-yl)oxymethyl]-N-(4-fluorophenyl)-2-phenylcyclopropanecarboxamide], the results for the IC50 in assay [1] and in assay [2] were 410 nM and 27 nM, respectively.
`CCn1cc(OC[C@@]2(c3cccc(F)c3)C[C@H]2C(=O)Nc2ccc(F)cn2)c(C)n1` [Example 87]: the IC50 in assay [1] is 136 nM; in assay [2], 21 nM.
Regarding `COc1nc(C)n(CCC2(c3ccccc3)CC2C(=O)Nc2ccc(Cl)cn2)n1` (stereo not shown) [Example 116], the IC50 in assay [1] was greater than 2000 nM; in assay [2], 89 nM.
With `CCn1cc(OC[C@@]2(c3cccc(F)c3)C[C@H]2C(=O)Nc2ccc(F)cn2)c(C)n1` [Example 86], the IC50 in assay [1] was found to be 15 nM; in assay [2], 5 nM.
`CCn1cc(OC[C@@]2(c3cccc(F)c3)C[C@H]2C(=O)Nc2ccc(F)cc2)c(C)n1` [Example 88]: the figures for the IC50 in assay [1] and in assay [2] were 84 nM and 12 nM, respectively.
For `CCn1cc(OC[C@@]2(c3cccc(F)c3)C[C@H]2C(=O)Nc2cc(OC)c(F)cn2)c(C)n1` [Example 89], the IC50 in assay [1] is greater than 200 nM; in assay [2] it was 93 nM.
Consider `Cc1nc(C(F)F)nn1CC[C@@]1(c2ccccc2)C[C@H]1C(=O)Nc1ccc(Cl)cn1` [Example 110], for which the IC50 in assay [1] came out at 196 nM; in assay [2], 36 nM.
Consider `Cc1csc(NC(=O)[C@@H]2C[C@@]2(CCn2nc(C(F)(F)F)nc2C)c2ccccc2)n1` [Example 124], for which the half-inhibitory concentration (IC50) was determined as 2250 nM in assay [1] and 55 nM in assay [2].
On to `Cc1cc(NC(=O)[C@@H]2C[C@@]2(CCn2nc(C(F)F)nc2C)c2ccccc2)ncc1F` [Example 108, (1R,2S)-2-[2-(3-difluoromethyl-5-methyl-1H-1,2,4-triazol-1-yl)ethyl]-N-(5-fluoro-4-methylpyridin-2-yl)-2-phenylcyclopropanecarboxamide], for which the IC50 in assay [1] was found to be 101 nM; in assay [2], 6 nM.
On to `CCn1cc(OC[C@@]2(c3cccc(F)c3)C[C@H]2C(=O)Nc2ccnc(F)c2)c(C)n1` [Example 91], for which the results for the 50% inhibitory concentration (IC50) in assay [1] and in assay [2] were greater than 200 nM and 93 nM, respectively.
The matching figures for `Cc1nc(C(F)F)nn1CC[C@@]1(c2ccccc2)C[C@H]1C(=O)Nc1ccc(F)cn1` [Example 109]: 1330 nM and 71 nM.
Take `CCn1nc(C)c(OC[C@@]2(c3ccccc3)C[C@H]2C(=O)Nc2ccc(F)cc2)cc1=O` [Example 98]: the IC50 in assay [1] came out at 132 nM; in assay [2], 55 nM.
On to `CCn1cc(OC[C@@]2(c3cccc(F)c3)C[C@H]2C(=O)Nc2ccccn2)c(C)n1` [Example 85], for which the IC50 amounted to 59 nM in assay [1] and 8 nM in assay [2].
For the molecule `Cc1nc(C2CC2)nn1CC[C@@]1(c2ccccc2)C[C@H]1C(=O)Nc1ccc(C#N)cn1` [Example 127], the IC50 in assay [1] stood at 266 nM; in assay [2] it was 23 nM.
As for `CCn1cc(CCC2(c3ccccc3)CC2C(=O)Nc2ccc(Cl)cn2)cn1` (stereo not shown) [Example 102], the IC50 in assay [1] amounted to 364 nM; in assay [2], 22 nM.
Take `CCn1cc(OC[C@@]2(c3ccccc3)C[C@H]2C(=O)Nc2ccccn2)c(C)n1` [Example 69]: the 50% inhibitory concentration (IC50) in assay [1] came out at 2130 nM; in assay [2] it was 69 nM.
Turning to `Cc1cnc(OC[C@@]2(c3ccccc3)C[C@H]2C(=O)Nc2ccc(F)cn2)c(C)n1` [Example 65], the IC50 worked out at 57 nM in assay [1] and 26 nM in assay [2].
Regarding `Cc1cnc(OC[C@@]2(c3ccccc3)C[C@H]2C(=O)Nc2ccc(C#N)cn2)c(C)n1` [Example 66], the IC50 was 74 nM in assay [1] and 21 nM in assay [2].
In the case of `COc1cncc(NC(=O)[C@@H]2C[C@@]2(COc2cc(=O)n(C)nc2C)c2ccccc2)c1` [Example 92, (1R,2S)-2-[(1,3-dimethyl-6-oxo-1,6-dihydropyridazin-4-yl)oxymethyl]-N-(5-methoxypyridin-3-yl)-2-phenylcyclopropanecarboxamide], the values for the IC50 in assay [1] and in assay [2] were 1360 nM and 5 nM, respectively.
In the same order, the values of `COc1cn(CCC2(c3ccccc3)CC2C(=O)Nc2ccc(Cl)cn2)ccc1=O` (stereo not shown) [Example 117] are 456 nM and 46 nM.
`Cc1cnc(OC[C@@]2(c3ccccc3)C[C@H]2C(=O)Nc2ccc(Cl)cn2)c(C)n1` [Example 67]: the IC50 in assay [1] came to 33 nM; in assay [2] it was 7 nM.
For the molecule `Cc1nn(C)cc1OCC1(c2ccccc2)CC1C(=O)Nc1ccc(Cl)cn1` (stereo not shown) [Example 83], the IC50 in assay [1] turned out to be 682 nM; in assay [2] it was 15 nM.
In the same order, the values of `CCn1cc(OC[C@@]2(c3ccccc3)C[C@H]2C(=O)Nc2ccc(F)cc2)c(C)n1` [Example 71] are 1310 nM and 45 nM.
